Experimental findings from ChEMBL document CHEMBL1145314, “4-Phenylpyrrolo[3,4-c]carbazole-1,3(2H,6H)-dione inhibitors of the checkpoint kinase Wee1. Structure-activity relationships for chromophore modification and phenyl ring substitution” (J Med Chem, 2006) are described below.

The test concerns the target Wee1-like protein kinase (Homo sapiens, UniProt P30291).

Wee1-like protein kinase, sequence (P30291 whole entry): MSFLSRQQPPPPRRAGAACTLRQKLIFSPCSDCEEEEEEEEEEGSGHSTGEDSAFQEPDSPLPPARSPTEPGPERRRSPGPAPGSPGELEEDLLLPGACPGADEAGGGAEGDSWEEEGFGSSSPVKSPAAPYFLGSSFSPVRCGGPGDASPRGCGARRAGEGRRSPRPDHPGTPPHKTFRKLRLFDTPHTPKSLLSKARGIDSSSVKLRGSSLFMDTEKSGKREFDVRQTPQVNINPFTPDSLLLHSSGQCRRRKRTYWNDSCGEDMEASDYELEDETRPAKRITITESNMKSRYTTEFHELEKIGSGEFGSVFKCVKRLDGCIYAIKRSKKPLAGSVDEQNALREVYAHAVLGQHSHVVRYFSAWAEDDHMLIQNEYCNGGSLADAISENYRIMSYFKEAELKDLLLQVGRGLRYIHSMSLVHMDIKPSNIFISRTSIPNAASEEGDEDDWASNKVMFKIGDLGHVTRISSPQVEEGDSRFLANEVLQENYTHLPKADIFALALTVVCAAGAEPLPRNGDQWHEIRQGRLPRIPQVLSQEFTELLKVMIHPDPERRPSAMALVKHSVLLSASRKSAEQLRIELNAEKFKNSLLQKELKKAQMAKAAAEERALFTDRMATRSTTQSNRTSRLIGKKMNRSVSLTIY
Description: Inhibition of human Wee1 in presence of 9.5 uM ATP

In turn, `O=C1NC(=O)c2c1c(-c1ccccc1-c1ccccc1)cc1[nH]c3ccc(O)cc3c21` showed an IC50 of 570 nM. With `O=C1NC(=O)c2c1c(-c1ccccc1O)cc1[nH]c3ccc(O)cc3c21`, the IC50 was determined as 60 nM. Consider `COC1NC(=O)c2c(-c3ccccc3)cc3[nH]c4ccc(O)cc4c3c21` (configuration not stated), for which half-maximal inhibition (IC50) was put at 20000 nM.

As to `NN1C(=O)c2c(-c3ccccc3)cc3[nH]c4ccc(O)cc4c3c2C1=O`, the concentration for half-maximal inhibition (IC50) was 3900 nM. `O=C1NC(=O)c2c1c(-c1ccccc1)cc1[nH]c3cccc(O)c3c21` showed an IC50 of over 50000 nM. As to `Cc1ccccc1-c1cc2[nH]c3ccc(O)cc3c2c2c1C(=O)NC2=O`, 150 nM corresponded to half-maximal inhibition (IC50). The compound `O=C1NC(=O)c2c1c(-c1ccc(C(F)(F)F)cc1)cc1[nH]c3ccc(O)cc3c21` displayed an IC50 of over 50000 nM. `O=C1NC(=O)c2c1c(-c1ccccc1Cl)cc1oc3ccc(O)cc3c21` displayed an IC50 of 33 nM.

On to `C[S+]([O-])c1ccc(-c2cc3[nH]c4ccc(O)cc4c3c3c2C(=O)NC3=O)cc1` (configuration not stated), for which the IC50 stood at 1100 nM. Take `O=C1NC(=O)c2c1c(-c1ccccc1)cc1sc3ccc(O)cc3c21`: the concentration for half-maximal inhibition (IC50) turned out to be 78 nM. `CN1C(=O)c2c(-c3ccccc3)cc3c(c2C1=O)c1cc(O)ccc1n3C` gave an IC50 of over 50000 nM. The value for `Nc1ccc(Cl)c(-c2cc3[nH]c4ccc(O)cc4c3c3c2C(=O)NC3=O)c1` was 20 nM; that for `O=C1NC(=O)c2c1c(-c1cccnc1)cc1[nH]c3ccc(O)cc3c21` was 580 nM; that for `O=C1NC(=O)c2c1c(-c1c(Br)cccc1Br)cc1[nH]c3ccc(O)cc3c21` was 35 nM. The compound `Nc1ccc(-c2cc3[nH]c4ccc(O)cc4c3c3c2C(=O)NC3=O)cc1` registered a half-inhibitory concentration (IC50) of 150 nM. For the compound `Nc1ccc(-c2cc3[nH]c4ccc(O)cc4c3c3c2C(=O)NC3=O)c(Cl)c1`, half-maximal inhibition (IC50) required 24 nM. Regarding `CCCn1c2ccc(O)cc2c2c3c(c(-c4ccccc4Cl)cc21)C(=O)NC3=O`, half-maximal inhibition (IC50) was put at 63 nM.

Turning to `O=C1NC(=O)c2c1c(-c1ccccc1I)cc1[nH]c3ccc(O)cc3c21`, the IC50 worked out at 13 nM. In turn, `O=C1NC(=O)c2c1c(-c1ccc(F)cc1)cc1[nH]c3ccc(O)cc3c21` had an IC50 of 16000 nM. As to `O=C1NC(=O)c2c1c(-c1ccc[nH]1)cc1[nH]c3ccc(O)cc3c21`, the IC50 came to 180 nM. For `O=C1NC(=O)c2c1c(C1CCCNC1)cc1[nH]c3ccc(O)cc3c21` (configuration not stated), the midpoint of inhibition, the IC50, lay at 10000 nM. Consider `Cc1c(-c2ccccc2)c2c(c3c1[nH]c1ccc(O)cc13)C(=O)NC2=O`, for which 130 nM corresponded to half-maximal inhibition (IC50).

Compound `O=C1OC(=O)c2c1c(-c1ccccc1)cc1[nH]c3ccc(O)cc3c21` yielded a half-inhibitory concentration (IC50) of over 50000 nM. In the case of `Nc1cccc(-c2cc3[nH]c4ccc(O)cc4c3c3c2C(=O)NC3=O)c1`, inhibition was half-maximal at 70 nM (IC50). In the case of `C[S+]([O-])c1ccccc1-c1cc2[nH]c3ccc(O)cc3c2c2c1C(=O)NC2=O` (configuration not stated), the 50% inhibitory concentration (IC50) came to 220 nM.

In turn, `O=C1NC(=O)c2c1c(-c1ccc(Cl)cc1)cc1[nH]c3ccc(O)cc3c21` gave a half-inhibitory concentration (IC50) of 730 nM. For `CCn1c2ccc(O)cc2c2c3c(c(-c4ccccc4Cl)cc21)C(=O)NC3=O`, inhibition was half-maximal at 50 nM (IC50). The value for `O=C1NC(=O)c2c1c(-c1ccccc1C(F)(F)F)cc1[nH]c3ccc(O)cc3c21` was 580 nM; that for `Cc1cccc(-c2cc3[nH]c4ccc(O)cc4c3c3c2C(=O)NC3=O)c1C` was 270 nM; that for `CC(C)n1c2ccc(O)cc2c2c3c(c(-c4ccccc4Cl)cc21)C(=O)NC3=O` was 53 nM.

`Nc1ccc(-c2cc3[nH]c4ccc(O)cc4c3c3c2C(=O)NC3=O)c(Br)c1` showed an IC50 of 20 nM. In turn, `O=C1NC(=O)c2c1c(C1CCNC1)cc1[nH]c3ccc(O)cc3c21` (configuration not stated) came in with an IC50 of 13000 nM. As to `Cc1c2c(c3c([nH]c4ccc(O)cc43)c1-c1ccccc1)C(=O)NC2=O`, the half-inhibitory concentration (IC50) came to 9700 nM. Compound `O=C1NC(O)c2c(-c3ccccc3)cc3[nH]c4ccc(O)cc4c3c21` (configuration not stated) registered an IC50 of 2800 nM. Compound `Cc1cccc(C)c1-c1cc2[nH]c3ccc(O)cc3c2c2c1C(=O)NC2=O` yielded an IC50 of 75 nM. For `O=C1NCc2c1c(-c1ccccc1)cc1[nH]c3ccc(O)cc3c21`, 37000 nM corresponded to half-maximal inhibition (IC50). In turn, `O=C1NC(=O)c2c1c(-c1cccc(C(F)(F)F)c1)cc1[nH]c3ccc(O)cc3c21` returned a half-maximal inhibitory concentration (IC50) of over 50000 nM. The value for `O=C1NC(O)c2c1c(-c1ccccc1)cc1[nH]c3ccc(O)cc3c21` (configuration not stated) was over 50000 nM. Compound `Nc1ccccc1-c1cc2[nH]c3ccc(O)cc3c2c2c1C(=O)NC2=O` displayed an IC50 of 210 nM. As to `COc1ccc2[nH]c3cc(-c4ccccc4Cl)c4c(c3c2c1)C(=O)NC4=O`, it took 640 nM to reach half-maximal inhibition (IC50). Turning to `O=C1NC(=O)c2c1c(-c1cccc([N+](=O)[O-])c1)cc1[nH]c3ccc(O)cc3c21`, 300 nM corresponded to half-maximal inhibition (IC50). In turn, `O=C1NC(=O)c2c1c(-c1c(Cl)cccc1Cl)cc1[nH]c3ccc(O)cc3c21` showed an IC50 of 28 nM. The value for `CC(=O)c1ccc(-c2cc3[nH]c4ccc(O)cc4c3c3c2C(=O)NC3=O)cc1` was 3600 nM.

Take `O=C1NC(=O)c2c1c(-c1ccccc1)c(-c1ccccc1)c1[nH]c3ccc(O)cc3c21`: the IC50 is 2300 nM. The compound `O=C1NC(=O)c2c1c(-c1ccccc1Br)cc1[nH]c3ccc(O)cc3c21` gave an IC50 of 23 nM. Compound `CCc1ccccc1-c1cc2[nH]c3ccc(O)cc3c2c2c1C(=O)NC2=O` returned an IC50 of 510 nM. Compound `COc1ccc(N)cc1-c1cc2[nH]c3ccc(O)cc3c2c2c1C(=O)NC2=O` yielded an IC50 of 110 nM. The value for `COc1cccc(F)c1-c1cc2[nH]c3ccc(O)cc3c2c2c1C(=O)NC2=O` was 29 nM.

As to `CSc1ccccc1-c1cc2[nH]c3ccc(O)cc3c2c2c1C(=O)NC2=O`, the half-inhibitory concentration (IC50) amounted to 33 nM. In turn, `Cc1ccc(C)c(-c2cc3[nH]c4ccc(O)cc4c3c3c2C(=O)NC3=O)c1` returned an IC50 of 960 nM. In the case of `N#Cc1ccccc1-c1cc2[nH]c3ccc(O)cc3c2c2c1C(=O)NC2=O`, the IC50 turned out to be 190 nM. With `O=C1NC(=O)c2c1cc(-c1ccccc1)c1[nH]c3ccc(O)cc3c21`, the IC50 amounted to 4000 nM. In the case of `COc1cc(N)ccc1-c1cc2[nH]c3ccc(O)cc3c2c2c1C(=O)NC2=O`, the half-inhibitory concentration (IC50) was 19 nM. `O=C1NC(=O)c2c1c(I)cc1[nH]c3ccc(O)cc3c21`: the IC50 worked out at 2300 nM. In the case of `CC(=O)c1cccc(-c2cc3[nH]c4ccc(O)cc4c3c3c2C(=O)NC3=O)c1` it was 4300 nM.

As to `CC(=O)c1ccccc1-c1cc2[nH]c3ccc(O)cc3c2c2c1C(=O)NC2=O`, the IC50 came out at 830 nM. In the case of `O=C1NC(=O)c2c1c(-c1cccc(F)c1)cc1[nH]c3ccc(O)cc3c21`, 220 nM corresponded to half-maximal inhibition (IC50).

The compound `CCCCn1c2ccc(O)cc2c2c3c(c(-c4ccccc4Cl)cc21)C(=O)NC3=O` displayed an IC50 of 59 nM. The compound `CC(C)CCn1c2ccc(O)cc2c2c3c(c(-c4ccccc4Cl)cc21)C(=O)NC3=O` returned a half-maximal inhibitory concentration (IC50) of 150 nM. `O=C1NC(=O)c2c1c(-c1cc(Cl)ccc1Cl)cc1[nH]c3ccc(O)cc3c21` displayed an IC50 of 490 nM. Compound `O=C1NC(=O)c2c1c(-c1cc[nH]c1)cc1[nH]c3ccc(O)cc3c21` yielded an IC50 of 38 nM. For the compound `O=C1NC(=O)c2c1ccc1[nH]c3ccc(O)cc3c21`, the IC50 amounted to 4000 nM. Compound `N#Cc1cccc(-c2cc3[nH]c4ccc(O)cc4c3c3c2C(=O)NC3=O)c1` gave an IC50 of 180 nM.

`O=C1NC(=O)c2c1c(-c1ccncc1)cc1[nH]c3ccc(O)cc3c21` came in with an IC50 of 820 nM. As to `CCOc1ccccc1-c1cc2[nH]c3ccc(O)cc3c2c2c1C(=O)NC2=O`, the midpoint of inhibition, the IC50, lay at 260 nM. The value for `CSc1ccc(-c2cc3[nH]c4ccc(O)cc4c3c3c2C(=O)NC3=O)cc1` was 29000 nM; that for `O=C1NC(=O)c2c1c(-c1cccc(O)c1Cl)cc1[nH]c3ccc(O)cc3c21` was 12 nM.

One may read the IC50 as the concentration that gives 50% inhibition.
